Among the data in ChEMBL document CHEMBL1153217, “Antitubercular potential of some semisynthetic analogues of phytol” (Bioorg Med Chem Lett, 2010) are MIC and Activity values, retold here.

The test system of data set [1] is Mycobacterium tuberculosis. Put plainly: Antitubercular activity against Mycobacterium tuberculosis H37Rv by BACTEC460 radiometric susceptibility assay. It is filed as functional.
Data set [2] concerns Mycobacterium tuberculosis. Put plainly: Antitubercular activity against Mycobacterium tuberculosis H37Rv at 500 ug/ml by BACTEC460 radiometric susceptibility assay. It is filed as functional, organism-based.
Data set [3] has as its system Mus musculus. Put plainly: Toxicity in Swiss albino mouse assessed as total serum triglyceride level 300 mg/kg, po (reference value: 72.43 +/- 8.40 mg/dl). It is filed as organism-based. Further details: dose 300 mg/kg, route oral. As to conditions: in vivo.
Data set [4] deals with Mus musculus. Description: Toxicity in Swiss albino mouse assessed as total haemoglobin level 300 mg/kg, po (reference value: 7.54 +/- 1.05 g/dl). Further details: dose 300 mg/kg, route oral. As to conditions: in vivo. The format is organism-based.
Data set [5] relates to Mus musculus. Put plainly: Toxicity in Swiss albino mouse assessed as total serum triglyceride level 5 mg/kg, po (reference value: 72.43 +/- 8.40 mg/dl). Further details: dose 5 mg/kg, route oral. The format is organism-based. As to conditions: in vivo.
Data set [6] relates to Mus musculus. Description: Toxicity in Swiss albino mouse assessed as total serum creatinine level 300 mg/kg, po (reference value: 0.71 +/- 0.14 mg/dl). The format is organism-based. Further details: dose 300 mg/kg, route oral. As to conditions: in vivo.
Data set [7] deals with Mus musculus. Description: Toxicity in Swiss albino mouse assessed as total RBC count 300 mg/kg, po (reference value: 6.24 +/- 0.51 millions/mm'3). The format is organism-based. Further details: dose 300 mg/kg, route oral. As to conditions: in vivo.
The subject of data set [8] is Mus musculus. Description: Toxicity in Swiss albino mouse assessed as total SGPT level 5 mg/kg, po (reference value: 8.13 +/- 0.79 U/L). As to conditions: in vivo. Further details: dose 5 mg/kg, route oral. The format is organism-based.
The test system of data set [9] is Mus musculus. Put plainly: Toxicity in Swiss albino mouse assessed as total SGOT level 5 mg/kg, po (reference value: 8.13 +/- 0.79 U/L). Further details: dose 5 mg/kg, route oral. It is filed as organism-based. The conditions noted are these: in vivo.
Data set [10] relates to Mus musculus. Put plainly: Toxicity in Swiss albino mouse assessed as total serum creatinine level 50 mg/kg, po (reference value: 0.71 +/- 0.14 mg/dl). Further details: dose 50 mg/kg, route oral. It is filed as organism-based. As to conditions: in vivo.
For data set [11], the system named is Mus musculus. Put plainly: Toxicity in Swiss albino mouse assessed as total serum total cholesterol level 5 mg/kg, po (reference value: 43.25 +/- 4.04 mg/dl). Further details: dose 5 mg/kg, route oral. It is filed as organism-based. The conditions noted are these: in vivo.
Data set [12] has as its system Mus musculus. Description: Toxicity in Swiss albino mouse assessed as body weight at 300 mg/kg, po (reference value: 23.56+/-1.547 g). The format is organism-based. Further details: dose 300 mg/kg, route oral. As to conditions: in vivo.
Data set [13] concerns Mus musculus. Put plainly: Toxicity in Swiss albino mouse assessed as total SGOT level 300 mg/kg, po (reference value: 8.13 +/- 0.79 U/L). Further details: dose 300 mg/kg, route oral. The conditions noted are these: in vivo. The format is organism-based.
For data set [14], the system named is Mus musculus. Put plainly: Toxicity in Swiss albino mouse assessed as total WBC level 50 mg/kg, po (reference value: 10.71 +/- 2.47 thousand/mm'3). The format is organism-based. Further details: dose 50 mg/kg, route oral. As to conditions: in vivo.
For data set [15], the system named is Mus musculus. Description: Toxicity in Swiss albino mouse assessed as total serum creatinine level 5 mg/kg, po (reference value: 0.71 +/- 0.14 mg/dl). It is filed as organism-based. Further details: dose 5 mg/kg, route oral. The conditions noted are these: in vivo.
The subject of data set [16] is Mus musculus. Put plainly: Toxicity in Swiss albino mouse assessed as total SGPT level 300 mg/kg, po (reference value: 8.13 +/- 0.79U/L). It is filed as organism-based. Further details: dose 300 mg/kg, route oral. As to conditions: in vivo.
Data set [17] concerns Mus musculus. Description: Toxicity in Swiss albino mouse assessed as total RBC count 5 mg/kg, po (reference value: 6.24 +/- 0.51 millions/mm'3). The format is organism-based. Further details: dose 5 mg/kg, route oral. As to conditions: in vivo.
For data set [18], the system named is Mus musculus. Description: Toxicity in Swiss albino mouse assessed as body weight at 50 mg/kg, po (reference value: 23.56+/-1.547 g). The format is organism-based. Further details: dose 50 mg/kg, route oral. As to conditions: in vivo.
In data set [19] the test system is Mus musculus. Put plainly: Toxicity in Swiss albino mouse assessed as total serum triglyceride level 50 mg/kg, po (reference value: 72.43 +/- 8.40 mg/dl). The format is organism-based. Further details: dose 50 mg/kg, route oral. The conditions noted are these: in vivo.
Data set [20] relates to Mus musculus. Put plainly: Toxicity in Swiss albino mouse assessed as total haemoglobin level 5 mg/kg, po (reference value: 7.54 +/- 1.05 g/dl). It is filed as organism-based. Further details: dose 5 mg/kg, route oral. As to conditions: in vivo.
Data set [21] relates to Mus musculus. Put plainly: Toxicity in Swiss albino mouse assessed as body weight at 5 mg/kg, po (reference value: 23.56+/-1.547 g). It is filed as organism-based. As to conditions: in vivo. Further details: dose 5 mg/kg, route oral.
Data set [22] concerns Mus musculus. Put plainly: Toxicity in Swiss albino mouse assessed as total RBC count 50 mg/kg, po (reference value: 6.24 +/- 0.51 millions/mm'3). Further details: dose 50 mg/kg, route oral. As to conditions: in vivo. It is filed as organism-based.
The subject of data set [23] is Mus musculus. Description: Toxicity in Swiss albino mouse assessed as total serum total cholesterol level 50 mg/kg, po (reference value: 43.25 +/- 4.04 mg/dl). The format is organism-based. Further details: dose 50 mg/kg, route oral. The conditions noted are these: in vivo.
For data set [24], the system named is Mus musculus. Description: Toxicity in Swiss albino mouse assessed as total serum total cholesterol level 300 mg/kg, po (reference value: 43.25 +/- 4.04 mg/dl). The format is organism-based. Further details: dose 300 mg/kg, route oral. The conditions noted are these: in vivo.
Data set [25] concerns Mus musculus. Description: Toxicity in Swiss albino mouse assessed as total SGOT level 50 mg/kg, po (reference value: 8.13 +/- 0.79 U/L). As to conditions: in vivo. It is filed as organism-based. Further details: dose 50 mg/kg, route oral.
For data set [26], the system named is Mus musculus. Put plainly: Toxicity in Swiss albino mouse assessed as total WBC level 300 mg/kg, po (reference value: 10.71 +/- 2.47 thousand/mm'3). As to conditions: in vivo. It is filed as organism-based. Further details: dose 300 mg/kg, route oral.
The subject of data set [27] is Mus musculus. Put plainly: Toxicity in Swiss albino mouse assessed as total WBC level 5 mg/kg, po (reference value: 10.71 +/- 2.47 thousand/mm'3). The format is organism-based. As to conditions: in vivo. Further details: dose 5 mg/kg, route oral.
In data set [28] the test system is Mus musculus. Description: Toxicity in Swiss albino mouse assessed as total haemoglobin level 50 mg/kg, po (reference value: 7.54 +/- 1.05 g/dl). Further details: dose 50 mg/kg, route oral. As to conditions: in vivo. It is filed as organism-based.
Data set [29] has as its system Mus musculus. Description: Toxicity in Swiss albino mouse assessed as total SGPT level 50 mg/kg, po (reference value: 8.13 +/- 0.79 U/L). It is filed as organism-based. Further details: dose 50 mg/kg, route oral. The conditions noted are these: in vivo.

SMILES strings stand for the structures. In brackets after ≈: the same amount, converted by molar mass. Activity calls are given as the source filed them. No cut-off for these calls is given here.

With `CN[C@@H]1[C@H](O[C@H]2[C@H](O[C@H]3[C@H](O)[C@@H](O)[C@H](N=C(N)N)[C@@H](O)[C@@H]3N=C(N)N)O[C@@H](C)[C@]2(O)C=O)O[C@@H](CO)[C@H](O)[C@H]1O` [STREPTOMYCIN], inhibition of growth in [1] (MIC) required 2 µg/mL (≈ 3.44 µM).
Same read-out and setting: then `CO[C@H]1/C=C/O[C@@]2(C)Oc3c(C)c(O)c4c(O)c(c(/C=N/N5CCN(C)CC5)c(O)c4c3C2=O)NC(=O)/C(C)=C\C=C\[C@H](C)[C@H](O)[C@@H](C)[C@@H](O)[C@@H](C)[C@H](OC(C)=O)[C@@H]1C` [RIFAMPIN], with 2 µg/mL (≈ 2.43 µM).
Take `C/C(=C\C=N\O)CCCC(C)CCCC(C)CCCC(C)C` (stereo unspecified): the lowest concentration to inhibit growth in [1] (MIC) was 25 µg/mL (≈ 80.8 µM).
On the same count and under the same terms, in the case of `C/C(=C\COC=O)CCCC(C)CCCC(C)CCCC(C)C` (stereo unspecified) it was 500 µg/mL (≈ 1540 µM).
With `CC(=O)OC/C=C(\C)CCCC(C)CCCC(C)CCCC(C)C` (stereo unspecified), the MIC result in [2] was “inactive”.
In the case of `CC(C)CCCC(C)CCCC(C)CCCC1(C)OC1CO` (stereo unspecified), the MIC result in data set [2] is “inactive”.
In the case of `CCOC(=O)/C=C/CO/N=C/C=C(\C)CCCC(C)CCCC(C)CCCC(C)C` (stereo unspecified), the Activity in the data set with Mus musculus [3] is 68.95 mg/dL; in the data set on Mus musculus [4], 5.55 g/dL; in the data set with Mus musculus [5] it was 84.31 mg/dL; in the data set on Mus musculus [6], 1.2 mg/dL; in the data set with Mus musculus [7] it was 5140000 /mm3; in the data set on Mus musculus [8], 11.15 U/L. The Activity in the data set with Mus musculus [9] was 28.03 U/L; in the data set with Mus musculus [10], 0.59 mg/dL; in the data set on Mus musculus [11], 57.67 mg/dL; in the data set with Mus musculus [12] it was 20.56 g; in the data set with Mus musculus [13], 41.73 U/L; in the data set with Mus musculus [14], 13460 /mm3. The Activity with Mus musculus [15] is 0.61 mg/dL; in the data set with Mus musculus [16], 11.36 U/L; in the data set with Mus musculus [17] it was 5980000 /mm3; in the data set on Mus musculus [18], 25.39 g; in the data set on Mus musculus [19], 71.9 mg/dL; in the data set with Mus musculus [20], 6.41 g/dL. Further, the Activity in the data set on Mus musculus [21] is 25.41 g; in the data set on Mus musculus [22], 6580000 /mm3; with Mus musculus [23], 54.91 mg/dL; in the data set on Mus musculus [24], 62.27 mg/dL; in the data set on Mus musculus [25] it was 35.44 U/L; in the data set with Mus musculus [26], 14240 /mm3. Further, the Activity in the data set with Mus musculus [27] was 14450 /mm3; in the data set on Mus musculus [28], 10.09 g/dL; in the data set on Mus musculus [29], 10.06 U/L. Also, it took 15.6 µg/mL (≈ 37 µM) to inhibit growth in data set [1] (MIC).
As to `C/C(=C\CN=[N+]=[N-])CCCC(C)CCCC(C)CCCC(C)C` (stereo unspecified), the MIC result in data set [2] is “inactive”.
In data set [1], `C/C(=C\C=O)CCCC(C)CCCC(C)CCCC(C)C` (stereo unspecified) displayed an MIC of 50 µg/mL (≈ 170 µM).
For `COc1cc(/C=C/C(O)=C/C(=O)/C=C/c2ccc(OC/C=C(\C)CCCC(C)CCCC(C)CCCC(C)C)cc2)ccc1OC/C=C(\C)CCCC(C)CCCC(C)CCCC(C)C` (stereo unspecified), in data set [2], the MIC result is “inactive”.
Still for that read-out and setting: then `C/C(=C\CBr)CCCC(C)CCCC(C)CCCC(C)C` (stereo unspecified), with “inactive”.
As for `C/C(=C\COC/C=C(\C)CCCC(C)CCCC(C)CCCC(C)C)CCCC(C)CCCC(C)CCCC(C)C` (stereo unspecified), in data set [2], the MIC result is “inactive”.
`CCOC(=O)CO/N=C/C=C(\C)CCCC(C)CCCC(C)CCCC(C)C` (stereo unspecified) yielded an MIC in data set [1] of 500 µg/mL (≈ 1260 µM).
Consider `C/C(=C\CO)CCCC(C)CCCC(C)CCCC(C)C` (stereo unspecified), for which the MIC in data set [1] came out at 100 µg/mL (≈ 337 µM).

A word on the MIC: it is the lowest concentration found to suppress growth.
